Data published in ChEMBL document CHEMBL1147006, “Synthesis, characterization and antiamoebic activity of 1-(thiazolo[4,5-b]quinoxaline-2-yl)-3-phenyl-2-pyrazoline derivatives” (Bioorg Med Chem Lett, 2006).

These compounds were tested on Entamoeba histolytica (assay: Antiamoebic activity against Entamoeba histolytica HM-1:IMSS).
Assay type: functional, organism-based

First: CC1CN(c2nc3nc4ccccc4nc3s2)N=C1c1cccc(Br)c1 (stereo unspecified)
Second: CC1CN(c2nc3nc4ccccc4nc3s2)N=C1c1cccc(Cl)c1 (stereo unspecified)
The IC50 of the first is 2-fold higher: 1.45 µM for the first, 0.72 µM for the second.

First: Clc1cccc(C2=NN(c3nc4nc5ccccc5nc4s3)CC2)c1
Second: Brc1cccc(C2=NN(c3nc4nc5ccccc5nc4s3)CC2)c1
The IC50 of the first is 4.6-fold lower: 1.09 µM for the first, 4.98 µM for the second.

Going from `CC1CN(c2nc3nc4ccccc4nc3s2)N=C1c1ccccc1` (stereo unspecified) to `c1ccc(C2=NN(c3nc4nc5ccccc5nc4s3)CC2)cc1`, the IC50 rises from 2.34 µM to 6.76 µM (2.9-fold). The first is the more potent here.

`NC(=S)N1CCC(c2ccccc2)=N1` and `NC(=S)N1CCC(c2cccc(Br)c2)=N1` are within 1.5-fold of each other in IC50: 17.2 µM for the first, 13.2 µM for the second.

`CC1CN(C(N)=S)N=C1c1ccccc1` (stereo unspecified) and `NC(=S)N1CCC(c2cccc(Cl)c2)=N1` are within 1.5-fold of each other in IC50: 10.2 µM for the first, 8.7 µM for the second.

Work on `Cc1ncc([N+](=O)[O-])n1CCO` [METRONIDAZOLE] yielded an IC50 of 1.69 µM.
